Results on 3 compounds are retold here after ChEMBL document CHEMBL3621061 (J Med Chem, 2015).

Molecules are shown by their SMILES.

Assay [1] is described as follows: Displacement of [3H]histamine from dog histamine H4 receptor expressed in HEK293T cells. The format is cell-based, Canis lupus familiaris. The note with it: hek-293t.
A short description of assay [2]: Displacement of [3H]histamine from monkey histamine H4 receptor expressed in HEK293T cells. Type of assay: cell-based, Macaca mulatta. Particulars: hek-293t. On the technique in general: Displacement assays read how much labelled ligand stays bound in the presence of the test substance.
A further assay concerns the target T1, Histamine H4 receptor (Cavia porcellus, UniProt Q91ZY3).
T1 sequence (Q91ZY3 whole entry): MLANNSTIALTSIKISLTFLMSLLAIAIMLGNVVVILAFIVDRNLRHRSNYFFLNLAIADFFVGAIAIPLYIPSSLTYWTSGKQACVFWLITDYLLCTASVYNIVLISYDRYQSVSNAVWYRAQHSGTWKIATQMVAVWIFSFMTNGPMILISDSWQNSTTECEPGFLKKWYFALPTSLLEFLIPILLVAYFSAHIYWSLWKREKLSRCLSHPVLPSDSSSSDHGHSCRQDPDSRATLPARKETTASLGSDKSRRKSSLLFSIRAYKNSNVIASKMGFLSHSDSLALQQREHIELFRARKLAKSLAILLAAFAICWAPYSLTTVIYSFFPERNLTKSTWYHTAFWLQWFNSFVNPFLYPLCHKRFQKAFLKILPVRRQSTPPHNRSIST

Assay [3] is described as follows: Displacement of [3H]histamine from monkey recombinant histamine H4 receptor. On the set-up: species or system Macaca mulatta.
Assay [4] in a line: Displacement of [3H]histamine from dog recombinant histamine H4 receptor. On the set-up: species or system Canis lupus familiaris.

Regarding `CN[C@@H]1CCN(c2cc(NCC3CC3)nc(N)n2)C1` [ADRIFORANT], the pKi (usually the Ki on a negative log10 scale, so that one unit is a factor of ten) in assay [1] is 5.79; in assay [2], 7.81.

In the case of `NCCc1c[nH]cn1` [HISTAMINE], the Ki (usually the equilibrium dissociation constant of an inhibitor or competing ligand from its target) on Histamine H4 receptor turned out to be 6 nM. `CC(C)c1cc(N2CC[C@@H](N)C2)nc(N)n1` [JNJ-39758979]: the inhibition constant (Ki) in assay [3] was 25 nM; in assay [4] it was above 10000 nM.
